The values below are quoted from earlier work in US7083961B1 (priority 2002, dated 2006).

For the series, the target named is T. foetus IMPDH (Tritrichomonas foetus, UniProt P50097). The following applies: T. foetus enzyme, without cofactor bound.
Sequence of T. foetus IMPDH (P50097 whole entry): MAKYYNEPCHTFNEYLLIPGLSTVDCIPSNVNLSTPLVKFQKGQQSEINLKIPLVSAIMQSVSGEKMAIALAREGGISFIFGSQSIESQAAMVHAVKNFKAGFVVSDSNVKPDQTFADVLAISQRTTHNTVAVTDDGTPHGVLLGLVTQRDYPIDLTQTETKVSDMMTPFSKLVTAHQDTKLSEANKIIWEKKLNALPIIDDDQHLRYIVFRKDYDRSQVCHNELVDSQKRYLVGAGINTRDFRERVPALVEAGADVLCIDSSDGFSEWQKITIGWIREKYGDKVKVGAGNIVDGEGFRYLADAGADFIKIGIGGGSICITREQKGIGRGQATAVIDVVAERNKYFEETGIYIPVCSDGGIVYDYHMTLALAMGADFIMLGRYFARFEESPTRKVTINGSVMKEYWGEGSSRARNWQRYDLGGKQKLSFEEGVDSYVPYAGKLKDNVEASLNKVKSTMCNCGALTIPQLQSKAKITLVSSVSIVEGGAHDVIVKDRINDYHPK

As to `O=c1[nH]c(=O)c2ncn([C@@H]3O[C@H](COP(=O)(O)O)[C@@H](O)[C@H]3O)c2[nH]1` [XMP, xanthosine monophosphate], the off-rate is 17 s⁻¹.
